The values that follow come from article PMC9422153, “A novel antibiotic combination of linezolid and polymyxin B octapeptide PBOP against clinical Pseudomonas aeruginosa strains” (Annals of Clinical Microbiology and Antimicrobials, 2022).

Bridge positions count the residues as written; N and C are the ends. Square brackets hold non-standard residues; d marks the D form. Peptide text beside a SMILES is read from it. Dab = NCC[C@H](N)C(=O)O

For assay [1], the system named is all tested P. aeruginosa strains. In kind it is cell-based, Pseudomonas aeruginosa. As to conditions: 24 h. The method, then:
The MICs (minimal inhibitory concentrations) were determined for different P. aeruginosa strains using micro-dilution method, with a concentration of 1 × 10^5 CFU/mL on LB broth for 24 h, according to the published procedures. The experiment was carried out in three repeats.

Another assay concerns P. aeruginosa PA14. Type of assay: cell-based, Pseudomonas aeruginosa. The protocol:
Synergistic effect of the 6 polymyxin B or polymyxin E derivatives in combination with 5 conventional antibacterial agents was detected using the checkerboard method as described on the previous study. Briefly, the serial concentrations of test compounds were prepared by a two-dimensional array. The tested dilutions were based on the MICs of the two different compounds. The fractional inhibitory concentration index (FIC) was applied to illuminate the checkerboard test based on formulas as follows: FIC Index = […] = MICA+B/MICA, and FICB = MICB+A/MICB. The value of MICA+B is indicated as the MIC value of Compound A with Compound B, and equally for MICB+A. […] The experiments were repeated in triplicate.

In a further assay the test system is PA2. Put plainly: Time-kill assay, bacterial burdens in vitro. Type of assay: cell-based, Pseudomonas aeruginosa. As to conditions: PA2, 1 × 10^5 CFU in 96-well plates; 1 h, 6 h, 12 h, 24 h; LP compared to single-treated groups. The method, then: (§1) To explore the antibacterial activity of LP combination in the P. aeruginosa in vitro, PA14 were cultured in 96-well plates and were treated with PBS, linezolid, PBOP or LP for 1 h, 6 h, 12 h, and 24 h.
(§2) A1–A4 1 × 10^5 CFU of PA14 were seeded in 96-well plates and treated with PBS, linezolid, PBOP or combination of linezolid and PBOP (LP) for 1 h (A1), 6 h (A2), 12 h (A3), and 24 h (A4). The bacteria burdens on the LB agar plates were counted. B1–B4 1 × 10^5 CFU of PA2 were seeded in 96-well plates and treated with PBS, linezolid, PBOP or LP for 1 h (B1), 6 h (B2), 12 h (B3), and 24 h (B4). C1–C4 1 × 10^5 CFU of PAB41 were seeded in 96-well plates and treated with PBS, linezolid, PBOP or LP for 1 h (C1), 6 h (C2), 12 h (C3), and 24 h (C4). The bacteria burdens were determined as described above.

A further assay relates to PAB41. The experiment in a line: Time-kill assay, bacterial burdens in vitro. In kind it is cell-based, Pseudomonas aeruginosa. As to conditions: PAB41, 1 × 10^5 CFU in 96-well plates; 1 h, 6 h, 12 h, 24 h; LP compared to single-treated groups. The protocol: as §1, §2
Assay [2] relates to C. elegans infected with PA14. The experiment in a line: C. elegans infection model. Type of assay: in vivo, Caenorhabditis elegans. As to conditions: PA14 infection on SK plate, linezolid 8 μg/mL, PBOP 16 μg/mL. The method, then: To determine the protective effect of LP, all groups of C. elegans were infected with PA14 in slow killing (SK) agar plate and were treated with PBS, linezolid (8 μg/mL), PBOP (16 μg/mL) or LP. The mortality of the infected C. elegans was evaluated for 7 days. […] The bacterial loads inside the C. elegans were counted at 12 h or 24 h post-infection as previously described. Briefly, the infected nematodes were mixed with silicon carbide particles and vortexed at maximum speed for one minute. The resulting suspension was serially diluted and plated on a selective agar plate to determine the bacterial CFU. This experiment was performed in triplicate.

For the compound `CC(C)C[C@@H]1NC(=O)[C@@H](Cc2ccccc2)NC(=O)[C@H](CCN)NC(=O)[C@@H](NC(=O)[C@@H](N)CCN)CCNC(=O)[C@H]([C@@H](C)O)NC(=O)[C@H](CCN)NC(=O)[C@H](CCN)NC1=O` [PBOP, polymyxin B octapeptide] (H-[Dab][Dab][Dab][dF]L[Dab][Dab]T; lactam 2-C (inferred); N-terminus assumed), the MIC result in assay [1] is “over 256 µg/mL”. For the same compound, in the assay on P. aeruginosa PA14, the “FIC (lowest FIC Index) combined with Erythromycin” value was 0.156, the “FIC (lowest FIC Index) combined with Lincomycin” value stood at 0.094, the “FIC (lowest FIC Index) combined with Linezolid” value was found to be 0.078 and the “FIC (lowest FIC Index) combined with Nisin” value amounted to 0.313. Besides, the “FIC (lowest FIC Index) combined with Vancomycin” value with P. aeruginosa PA14 is given as 0.156. Besides, the “bacterial CFU / bactericidal activity” value in the assay on PA2 was “no remarkably bactericidal activity”. Moreover, in the assay on PAB41, the “bacterial CFU / bactericidal activity” value is reported as “no remarkably bactericidal activity”. Further, the “bacterial loads inside C. elegans” value in assay [2] (12 h and 24 h post infection) is “a great number of bacteria were detected”. Also, in assay [2] (monitored 7 days), the “survival of infected C. elegans” value is recorded as “died at day 3”.
